Experimental data reported in PMC7758046, “Novel piperazine–chalcone hybrids and related pyrazoline analogues targeting VEGFR-2 kinase; design, synthesis, molecular docking studies, and anticancer evaluation” (Journal of Enzyme Inhibition and Medicinal Chemistry, 2020).

Key:
Test in all cases: NCI-60 single-dose anticancer screen
Type in all cases: cell-based, human
[1] = system: 786-0 (Renal cancer); conditions: 10 µM single dose
Protocol: (§1) Six compounds were selected by the NCI, according to NCI’s DTP selection guidelines, for evaluation of their anticancer activity at a single-dose of 10 µM against 60 human tumours cell lines.
(§2) In vitro cytotoxicity was performed in NCI according to reported method.

[2] = system: A549/ATCC (Non-small cell lung cancer); conditions: 10 µM single dose
Protocol: as §1, §2

[3] = system: ACHN (Renal cancer); conditions: 10 µM single dose
Protocol: as §1, §2

[4] = system: BT-549 (Breast cancer); conditions: 10 µM single dose
Protocol: as §1, §2

[5] = system: CAKI-1 (Renal cancer); conditions: 10 µM single dose
Protocol: as §1, §2

[6] = system: CCRF-CEM (Leukaemia); conditions: 10 µM single dose
Protocol: as §1, §2

[7] = system: COLO 205 (Colon cancer); conditions: 10 µM single dose
Protocol: as §1, §2

[8] = system: DU-145 (Prostate cancer); conditions: 10 µM single dose
Protocol: as §1, §2

[9] = system: EKVX (Non-small cell lung cancer); conditions: 10 µM single dose
Protocol: as §1, §2

[10] = system: HCC-2998 (Colon cancer); conditions: 10 µM single dose
Protocol: as §1, §2

[11] = system: HL-60(TB) (Leukaemia); conditions: 10 µM single dose
Protocol: as §1, §2

[12] = system: HOP-62 (Non-small cell lung cancer); conditions: 10 µM single dose
Protocol: as §1, §2

[13] = system: HOP-92 (Non-small cell lung cancer); conditions: 10 µM single dose; for inhibition at 10 µM: Homo sapiens, read-out: cell growth inhibition
Protocol: as §1, §2

[14] = system: HT29 (Colon cancer); conditions: for cell growth promotion: 10 µM single dose; for inhibition at 10 µM: Homo sapiens, HT-29, 10 µM single dose, read-out: cell growth inhibition
Protocol: as §1, §2

[15] = system: IGROV1 (Ovarian cancer); conditions: 10 µM single dose
Protocol: as §1, §2

[16] = system: LOX IMVI (Melanoma); conditions: 10 µM single dose
Protocol: as §1, §2

[17] = system: MALME-3M (Melanoma); conditions: 10 µM single dose
Protocol: as §1, §2

[18] = system: MCF7 (Breast cancer); conditions: 10 µM single dose
Protocol: as §1, §2

[19] = system: MDA-MB-231/ATCC (Breast cancer); conditions: 10 µM single dose
Protocol: as §1, §2

[20] = system: MDA-MB-435 (Melanoma); conditions: 10 µM single dose
Protocol: as §1, §2

[21] = system: MDA-MB-468 (Breast cancer); conditions: 10 µM single dose
Protocol: as §1, §2

[22] = system: NCI-H226 (Non-small cell lung cancer); conditions: 10 µM single dose
Protocol: as §1, §2

[23] = system: NCI-H23 (Non-small cell lung cancer); conditions: 10 µM single dose
Protocol: as §1, §2

[24] = system: NCI-H322M (Non-small cell lung cancer); conditions: 10 µM single dose
Protocol: as §1, §2

[25] = system: OVCAR-3 (Ovarian cancer); conditions: 10 µM single dose
Protocol: as §1, §2

[26] = system: OVCAR-4 (Ovarian cancer); conditions: 10 µM single dose
Protocol: as §1, §2

[27] = system: OVCAR-5 (Ovarian cancer); conditions: 10 µM single dose
Protocol: as §1, §2

[28] = system: OVCAR-8 (Ovarian cancer); conditions: 10 µM single dose
Protocol: as §1, §2

[29] = system: PC-3 (Prostate cancer); conditions: 10 µM single dose
Protocol: as §1, §2

[30] = system: RPMI-8226 (Leukaemia); conditions: 10 µM single dose
Protocol: as §1, §2

[31] = system: RXF 393 (Renal cancer); conditions: 10 µM single dose
Protocol: as §1, §2

[32] = system: SF-268 (CNS cancer); conditions: 10 µM single dose
Protocol: as §1, §2

[33] = system: SF-295 (CNS cancer); conditions: 10 µM single dose
Protocol: as §1, §2

[34] = system: SF-539 (CNS cancer); conditions: 10 µM single dose
Protocol: as §1, §2

[35] = system: SK-MEL-2 (Melanoma); conditions: 10 µM single dose
Protocol: as §1, §2

[36] = system: SK-MEL-28 (Melanoma); conditions: 10 µM single dose
Protocol: as §1, §2

[37] = system: SK-MEL-5 (Melanoma); conditions: 10 µM single dose
Protocol: as §1, §2

[38] = system: SK-OV-3 (Ovarian cancer); conditions: 10 µM single dose
Protocol: as §1, §2

[39] = system: SN12C (Renal cancer); conditions: 10 µM single dose
Protocol: as §1, §2

[40] = system: SNB-19 (CNS cancer); conditions: 10 µM single dose
Protocol: as §1, §2

[41] = system: SNB-75 (CNS cancer); conditions: 10 µM single dose
Protocol: as §1, §2

[42] = system: SR (Leukaemia); conditions: 10 µM single dose
Protocol: as §1, §2

[43] = system: SW-620 (Colon cancer); conditions: 10 µM single dose
Protocol: as §1, §2

[44] = system: T-47D (Breast cancer); conditions: 10 µM single dose
Protocol: as §1, §2

[45] = system: TK-10 (Renal cancer); conditions: 10 µM single dose
Protocol: as §1, §2

[46] = system: UACC-257 (Melanoma); conditions: 10 µM single dose
Protocol: as §1, §2

[47] = system: UO-31 (Renal cancer); conditions: 10 µM single dose
Protocol: as §1, §2

[48] = Homo sapiens, read-out: cell growth inhibition

For `N#Cc1ccccc1C1CC(c2ccc(N3CCNCC3)cc2)=NN1` (stereo not drawn) [VIa, 2-(3-(4-(Piperazin-1-yl)phenyl)-4,5-dihydro-1H-pyrazol-5-yl)benzonitrile], the cell growth promotion [1] was 106.73%, the cell growth promotion [2] was 78.06% and the inhibition at 10 µM [2, 48] was 21.9%. The cell growth promotion [3] was 104.24%, the cell growth promotion [4] was 96.87% and the cell growth promotion [5] was 83.12%. The cell growth promotion [6] was 71.21%, the inhibition at 10 µM [6, 48] was 28.8% and the cell growth promotion [7] was 113.04%. For the same compound, the cell growth promotion [8] was 104.00%, the cell growth promotion [9] was 101.50% and the cell growth promotion [10] was 96.75%. For the same compound, the cell growth promotion [11] was 81.63%, the cell growth promotion [12] was 86.44% and the cell growth promotion [13] was 83.18%. It also gave an inhibition at 10 µM [13] of 16.8%, a cell growth promotion [14] of 87.83% and an inhibition at 10 µM [14] of 12.2%. The cell growth promotion [15] was 93.22%, the cell growth promotion [16] was 99.03% and the cell growth promotion [17] was 106.87%. For the same compound, the cell growth promotion [18] was 93.05%, the cell growth promotion [19] was 95.96% and the cell growth promotion [20] was 102.57%. The cell growth promotion [21] was 101.01%, the cell growth promotion [22] was 93.10% and the cell growth promotion [23] was 91.73%. It also gave a cell growth promotion [24] of 98.35%, a cell growth promotion [25] of 101.64% and a cell growth promotion [26] of 101.39%. It also gave a cell growth promotion [27] of 113.63%, a cell growth promotion [28] of 90.36% and a cell growth promotion [29] of 83.35%. The cell growth promotion [30] was 88.98%, the cell growth promotion [31] was 108.30% and the cell growth promotion [32] was 100.24%. The cell growth promotion [33] was 103.66%, the cell growth promotion [34] was 105.04% and the cell growth promotion [35] was 94.51%. For the same compound, the cell growth promotion [36] was 114.17%, the cell growth promotion [37] was 93.27% and the cell growth promotion [38] was 96.47%. For the same compound, the cell growth promotion [39] was 98.09%, the cell growth promotion [40] was 95.34% and the cell growth promotion [41] was 90.58%. For the same compound, the cell growth promotion [42] was 94.43%, the inhibition at 10 µM [42, 48] was 5.57% and the cell growth promotion [43] was 94.11%. The cell growth promotion [44] was 89.99%, the cell growth promotion [45] was 130.17% and the cell growth promotion [46] was 85.21%. It also gave a cell growth promotion [47] of 86.28%.

`COc1cc(C2CC(c3ccc(N4CCNCC4)cc3)=NN2)ccc1F` (stereo not drawn) [VIb, 1-(4-(5-(4-Fluoro-3-methoxyphenyl)-4,5-dihydro-1H-pyrazol-3-yl)phenyl) piperazine] showed a cell growth promotion [1] of 94.50%, a cell growth promotion [2] of 68.21% and a cell growth promotion [3] of 101.47%. For the same compound, the cell growth promotion [4] was 70.80%, the cell growth promotion [5] was 86.62% and the cell growth promotion [6] was 69.44%. The cell growth promotion [7] was 93.87%, the cell growth promotion [8] was 103.62% and the cell growth promotion [9] was 95.41%. The cell growth promotion [10] was 104.57%, the cell growth promotion [11] was 76.95% and the cell growth promotion [12] was 86.01%. The cell growth promotion [13] was 57.13%, the inhibition at 10 µM [13] was 42.9% and the cell growth promotion [14] was 20.27%. It also gave an inhibition at 10 µM [14] of 79.7%, a cell growth promotion [15] of 82.04% and a cell growth promotion [16] of 79.56%. It also gave a cell growth promotion [17] of 102.13%, a cell growth promotion [18] of 68.65% and a cell growth promotion [19] of 81.98%. It also gave a cell growth promotion [20] of 101.87%, a cell growth promotion [21] of 96.57% and a cell growth promotion [22] of 89.08%. For the same compound, the cell growth promotion [23] was 75.49%, the cell growth promotion [24] was 89.15% and the cell growth promotion [25] was 91.15%. It also gave a cell growth promotion [26] of 91.49%, a cell growth promotion [27] of 101.51% and a cell growth promotion [28] of 84.09%. The cell growth promotion [29] was 64.23%, the cell growth promotion [30] was 72.01% and the cell growth promotion [31] was 95.32%. For the same compound, the cell growth promotion [32] was 93.72%, the cell growth promotion [33] was 97.70% and the cell growth promotion [34] was 84.21%. The cell growth promotion [35] was 87.70%, the cell growth promotion [36] was 109.51% and the cell growth promotion [37] was 80.94%. For the same compound, the cell growth promotion [38] was 83.58%, the cell growth promotion [39] was 83.08% and the cell growth promotion [40] was 95.65%. For the same compound, the cell growth promotion [41] was 88.85%, the cell growth promotion [42] was 67.42% and the cell growth promotion [43] was 91.67%. The cell growth promotion [44] was 73.62%, the cell growth promotion [45] was 113.60% and the cell growth promotion [46] was 80.93%. For the same compound, the cell growth promotion [47] was 76.56%.

Compound `Fc1cnccc1C1CC(c2ccc(N3CCNCC3)cc2)=NN1` (stereo not drawn) [VIc, 1-(4-(5-(3-Fluoropyridin-4-yl)-4,5-dihydro-1H-pyrazol-3-yl)phenyl) piperazine] has a cell growth promotion [1] of 111.09%, a cell growth promotion [2] of 76.20% and a cell growth promotion [3] of 99.87%. For the same compound, the cell growth promotion [4] was 85.33%, the cell growth promotion [5] was 80.62% and the cell growth promotion [6] was 80.81%. For the same compound, the cell growth promotion [7] was 95.69%, the cell growth promotion [8] was 107.16% and the cell growth promotion [9] was 91.04%. The cell growth promotion [10] was 101.72%, the cell growth promotion [11] was 77.32% and the cell growth promotion [12] was 83.16%. For the same compound, the cell growth promotion [13] was 72.42%, the inhibition at 10 µM [13] was 27.6% and the cell growth promotion [14] was 60.16%. It also gave an inhibition at 10 µM [14] of 39.8%, a cell growth promotion [15] of 67.96% and a cell growth promotion [16] of 94.31%. For the same compound, the cell growth promotion [17] was 93.43%, the cell growth promotion [18] was 73.03% and the cell growth promotion [19] was 84.58%. The cell growth promotion [20] was 105.18%, the cell growth promotion [21] was 114.26% and the cell growth promotion [22] was 82.88%. It also gave a cell growth promotion [23] of 83.85%, a cell growth promotion [24] of 89.29% and a cell growth promotion [25] of 98.79%. For the same compound, the cell growth promotion [26] was 108.25%, the cell growth promotion [27] was 111.45% and the cell growth promotion [28] was 95.06%. It also gave a cell growth promotion [29] of 70.34%, a cell growth promotion [30] of 92.51% and a cell growth promotion [31] of 104.89%. It also gave a cell growth promotion [32] of 107.32%, a cell growth promotion [33] of 98.00% and a cell growth promotion [34] of 104.39%. For the same compound, the cell growth promotion [35] was 92.72%, the cell growth promotion [36] was 115.80% and the cell growth promotion [37] was 85.78%. For the same compound, the cell growth promotion [38] was 85.00%, the cell growth promotion [39] was 89.56% and the cell growth promotion [40] was 97.45%. For the same compound, the cell growth promotion [41] was 101.50%, the cell growth promotion [42] was 90.38% and the cell growth promotion [43] was 93.46%. It also gave a cell growth promotion [44] of 82.20%, a cell growth promotion [45] of 122.80% and a cell growth promotion [46] of 83.07%. The cell growth promotion [47] was 77.18%.
